Laboratory results: publication PMC7774954, “Interactomic affinity profiling by holdup assay: Acetylation and distal residues impact the PDZome-binding specificity of PTEN phosphatase” (PLoS ONE, 2020)
pKd: −log10 of the molar value. *1 amine or outer side, *2 acyl side, *3 side chain or, on linkers, in order; H or OH if unused. Where a SMILES comes first, the peptide text is derived from it. The star is where a group is joined. X1 = O=C(CCCC[C@@H]1SC[C@@H]2NC(=O)N[C@@H]21)NCCCOCCOCCOCCCN*; Suc = O=C(CCC(=O)[*:2])[*:1]

Assays:
[1] = system: APBA2-2; test: Holdup assay, APBA2-2; type: binding, human
[2] = target: T1, MAGI3-5 (Homo sapiens, UniProt Q5TCQ9); test: Holdup assay, MAGI3-5; type: binding
T1 sequence (Q5TCQ9 1-1481): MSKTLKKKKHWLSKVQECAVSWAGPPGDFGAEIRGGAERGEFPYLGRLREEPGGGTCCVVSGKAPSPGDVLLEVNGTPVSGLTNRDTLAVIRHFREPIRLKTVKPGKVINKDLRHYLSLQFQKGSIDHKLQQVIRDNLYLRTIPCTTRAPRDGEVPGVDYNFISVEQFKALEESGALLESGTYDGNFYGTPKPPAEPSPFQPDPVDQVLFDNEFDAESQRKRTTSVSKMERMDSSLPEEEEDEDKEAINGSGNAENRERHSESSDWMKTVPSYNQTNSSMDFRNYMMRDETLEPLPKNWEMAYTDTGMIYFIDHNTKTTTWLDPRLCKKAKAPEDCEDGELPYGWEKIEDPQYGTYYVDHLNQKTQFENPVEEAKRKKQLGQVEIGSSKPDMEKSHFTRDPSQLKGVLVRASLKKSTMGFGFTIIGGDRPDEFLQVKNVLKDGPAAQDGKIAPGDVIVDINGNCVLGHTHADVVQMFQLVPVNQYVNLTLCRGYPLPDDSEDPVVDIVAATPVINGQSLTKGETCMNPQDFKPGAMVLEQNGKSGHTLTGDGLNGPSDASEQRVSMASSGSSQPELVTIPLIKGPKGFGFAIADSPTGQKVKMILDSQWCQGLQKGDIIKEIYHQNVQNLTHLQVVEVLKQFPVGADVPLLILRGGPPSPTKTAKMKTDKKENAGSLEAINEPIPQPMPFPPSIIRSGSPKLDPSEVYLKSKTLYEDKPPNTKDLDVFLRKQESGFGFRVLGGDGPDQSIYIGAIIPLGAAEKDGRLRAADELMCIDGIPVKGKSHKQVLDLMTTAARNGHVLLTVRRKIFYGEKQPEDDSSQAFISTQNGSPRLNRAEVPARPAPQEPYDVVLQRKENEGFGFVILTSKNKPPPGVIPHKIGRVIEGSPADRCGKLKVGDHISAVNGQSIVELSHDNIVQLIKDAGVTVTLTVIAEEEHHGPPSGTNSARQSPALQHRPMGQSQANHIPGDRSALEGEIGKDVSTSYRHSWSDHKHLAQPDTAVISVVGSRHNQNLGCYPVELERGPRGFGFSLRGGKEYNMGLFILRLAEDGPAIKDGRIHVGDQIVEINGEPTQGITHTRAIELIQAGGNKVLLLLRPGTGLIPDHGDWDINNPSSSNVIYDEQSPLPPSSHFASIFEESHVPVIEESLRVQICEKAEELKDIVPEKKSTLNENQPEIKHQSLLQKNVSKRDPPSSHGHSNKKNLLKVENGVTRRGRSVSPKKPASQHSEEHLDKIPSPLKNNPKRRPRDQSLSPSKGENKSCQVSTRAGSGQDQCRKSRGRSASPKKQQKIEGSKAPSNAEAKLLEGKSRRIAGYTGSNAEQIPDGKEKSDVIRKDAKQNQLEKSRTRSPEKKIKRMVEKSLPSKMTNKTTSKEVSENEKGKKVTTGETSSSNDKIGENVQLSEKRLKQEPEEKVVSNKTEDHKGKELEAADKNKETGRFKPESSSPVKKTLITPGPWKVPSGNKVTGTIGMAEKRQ

[3] = system: IL16-1; test: Holdup assay, IL16-1; type: binding, human
[4] = system: DLG5-4; test: Holdup assay, DLG5-4; type: binding, human
[5] = target: T2, FRMPD2-2 (Homo sapiens, UniProt Q68DX3); test: Holdup assay, FRMPD2-2; type: binding
T2 sequence (Q68DX3 1-1309): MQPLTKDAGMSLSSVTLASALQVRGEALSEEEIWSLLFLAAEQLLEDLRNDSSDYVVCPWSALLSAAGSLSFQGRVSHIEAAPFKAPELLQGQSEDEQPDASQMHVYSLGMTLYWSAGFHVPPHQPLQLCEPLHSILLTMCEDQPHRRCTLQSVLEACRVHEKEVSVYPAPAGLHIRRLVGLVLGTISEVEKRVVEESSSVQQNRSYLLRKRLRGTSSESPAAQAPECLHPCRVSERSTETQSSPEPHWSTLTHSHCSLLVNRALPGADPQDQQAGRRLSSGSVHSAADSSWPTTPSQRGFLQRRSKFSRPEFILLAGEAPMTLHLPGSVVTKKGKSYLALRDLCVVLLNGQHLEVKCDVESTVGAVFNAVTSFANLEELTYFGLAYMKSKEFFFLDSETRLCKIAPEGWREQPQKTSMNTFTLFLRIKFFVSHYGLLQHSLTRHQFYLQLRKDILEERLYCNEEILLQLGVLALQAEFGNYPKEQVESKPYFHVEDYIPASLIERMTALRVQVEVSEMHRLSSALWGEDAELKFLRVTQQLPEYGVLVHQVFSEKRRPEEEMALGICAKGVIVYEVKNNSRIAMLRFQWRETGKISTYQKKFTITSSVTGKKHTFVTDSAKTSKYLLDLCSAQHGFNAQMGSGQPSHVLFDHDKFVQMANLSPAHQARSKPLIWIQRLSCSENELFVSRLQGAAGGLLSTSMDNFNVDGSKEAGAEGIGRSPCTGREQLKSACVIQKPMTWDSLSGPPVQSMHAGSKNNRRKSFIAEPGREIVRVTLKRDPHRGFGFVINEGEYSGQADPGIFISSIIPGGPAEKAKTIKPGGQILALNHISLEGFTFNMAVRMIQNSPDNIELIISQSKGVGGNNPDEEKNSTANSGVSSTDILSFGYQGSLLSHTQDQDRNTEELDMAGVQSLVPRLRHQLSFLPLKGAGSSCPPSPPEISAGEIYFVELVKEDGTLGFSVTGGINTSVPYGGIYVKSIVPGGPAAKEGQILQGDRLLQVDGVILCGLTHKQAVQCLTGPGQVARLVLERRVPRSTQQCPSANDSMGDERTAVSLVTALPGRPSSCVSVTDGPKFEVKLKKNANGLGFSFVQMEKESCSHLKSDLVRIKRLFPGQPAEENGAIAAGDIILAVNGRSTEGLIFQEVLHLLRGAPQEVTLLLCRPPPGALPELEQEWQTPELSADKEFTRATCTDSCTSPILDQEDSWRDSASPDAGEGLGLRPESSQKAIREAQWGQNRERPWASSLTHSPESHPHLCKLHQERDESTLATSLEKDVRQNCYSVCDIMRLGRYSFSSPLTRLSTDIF

[6] = system: FRMPD4-1; test: Holdup assay, FRMPD4-1; type: binding, human

Structure (SMILES)	BI [1]	LogKD [1]	BI [2]	LogKD [2]	BI [3]	LogKD [3]	BI [4]	LogKD [4]	BI [5]	pKd [5]	BI [6]	LogKD [6]	pKd [2]
CC[C@H](C)[C@H](NC(=O)[C@H](CCC(N)=O)NC(=O)[C@@H](NC(=O)[C@H](Cc1c[nH]cn1)NC(=O)[C@H](CCC(N)=O)NC(=O)[C@H](CC(=O)O)NC(=O)[C@H](CCC(=O)O)NC(=O)[C@H](CC(=O)O)NC(=O)CCC(=O)NCCCOCCOCCOCCCNC(=O)CCCC[C@@H]1SC[C@@H]2NC(=O)N[C@@H]21)[C@@H](C)O)C(=O)N[C@H](C(=O)N[C@@H](CCCCN)C(=O)N[C@H](C(=O)O)C(C)C)[C@@H](C)O [PTEN_11]	-0.01	3.519	0.097	3.519	-0.017	3.519	-0.07	3.519	0.291	4.10	-0.004	3.519	
CC[C@H](C)[C@H](NC(=O)[C@H](CCC(N)=O)NC(=O)[C@@H](NC(=O)[C@H](Cc1c[nH]cn1)NC(=O)[C@H](CCC(N)=O)NC(=O)[C@H](CC(=O)O)NC(=O)[C@H](CCC(=O)O)NC(=O)[C@H](CC(=O)O)NC(=O)[C@H](Cc1ccccc1)NC(=O)[C@@H]1CCCN1C(=O)CCC(=O)NCCCOCCOCCOCCCNC(=O)CCCC[C@@H]1SC[C@@H]2NC(=O)N[C@@H]21)[C@@H](C)O)C(=O)N[C@H](C(=O)N[C@@H](CCCCN)C(=O)N[C@H](C(=O)O)C(C)C)[C@@H](C)O [PTEN_13] ({X1-Suc}-PFDEDQHTQITKV-OH)	0.041		[…]	[…]	0.018		-0.028		0.254	4.33	-0.07		
CC[C@H](C)[C@H](NC(=O)[C@H](CCC(N)=O)NC(=O)[C@@H](NC(=O)[C@H](Cc1c[nH]cn1)NC(=O)[C@H](CCC(N)=O)NC(=O)[C@H](CC(=O)O)NC(=O)[C@H](CCC(=O)O)NC(=O)[C@H](CC(=O)O)NC(=O)CCC(=O)NCCCOCCOCCOCCCNC(=O)CCCC[C@@H]1SC[C@@H]2NC(=O)N[C@@H]21)[C@@H](C)O)C(=O)N[C@H](C(=O)N[C@@H](CCCNC(=N)N)C(=O)N[C@H](C(=O)O)C(C)C)[C@@H](C)O [PTEN_KR] ({X1-Suc}-DEDQHTQITRV-OH)	-0.002	3.655	0.165		0.06	3.655	-0.107	3.655	0.295	4.24	-0.051	3.655	
CC[C@H](C)[C@H](NC(=O)[C@H](CCC(N)=O)NC(=O)[C@@H](NC(=O)[C@H](Cc1c[nH]cn1)NC(=O)[C@H](CCC(N)=O)NC(=O)[C@H](CC(=O)O)NC(=O)[C@H](CCC(=O)O)NC(=O)[C@H](CC(=O)O)NC(=O)CCC(=O)NCCCOCCOCCOCCCNC(=O)CCCC[C@@H]1SC[C@@H]2NC(=O)N[C@@H]21)[C@@H](C)O)C(=O)N[C@H](C(=O)N[C@@H](CCCCNC(C)=O)C(=O)N[C@H](C(=O)O)C(C)C)[C@@H](C)O [PTEN_Ac]	-0.03	3.605	0.21		0.039	3.605	-0.1	3.605	0.574	4.72	-0.076	3.605	3.99
